Data published in ChEMBL document CHEMBL2413072, “Synthesis and in vitro anticancer studies of novel C-2 arylidene congeners of lantadenes” (2013).

Legend:
Type in all cases: functional
CCRF-CEM [1] = experiment: Growth inhibition of human CCRF-CEM cells assessed as growth inhibition at 10 uM by sulforhodamine B assay; conditions: read-out: GI
ACHN = experiment: Growth inhibition of human ACHN cells assessed as cell growth at 10^-7 M by sulforhodamine B assay; conditions: read-out: Activity
HOP-92 [2] = experiment: Growth inhibition of human HOP92 cells assessed as growth inhibition at 10 uM by sulforhodamine B assay; conditions: read-out: GI
SNB-19 = experiment: Growth inhibition of human SNB19 cells assessed as cell growth at 10 uM by sulforhodamine B assay; conditions: read-out: Activity
DU-145 [3] = experiment: Growth inhibition of human DU145 cells assessed as cell growth at 10^-6 M by sulforhodamine B assay; conditions: read-out: Activity
SW-620 = experiment: Growth inhibition of human SW620 cells assessed as growth inhibition at 10 uM by sulforhodamine B assay; conditions: read-out: GI
U-251 = experiment: Growth inhibition of human U251 cells assessed as cell growth at 10^-6 M by sulforhodamine B assay; conditions: read-out: Activity
UO-31 = experiment: Growth inhibition of human UO31 cells assessed as cell growth at 10^-8 M by sulforhodamine B assay; conditions: read-out: Activity
SK-MEL-2 [4] = experiment: Growth inhibition of human SK-MEL-2 cells by sulforhodamine B assay
TK-10 [5] = experiment: Growth inhibition of human TK10 cells assessed as cell growth at 10^-4 M by sulforhodamine B assay; conditions: read-out: Activity
SF-539 [6] = experiment: Growth inhibition of human SF539 cells assessed as cell growth at 10^-4 M by sulforhodamine B assay; conditions: read-out: Activity
IGROV-1 = experiment: Growth inhibition of human IGROV1 cells assessed as growth inhibition at 10 uM by sulforhodamine B assay; conditions: read-out: GI
A498 = experiment: Growth inhibition of human A498 cells assessed as growth inhibition at 10 uM by sulforhodamine B assay; conditions: read-out: GI
OVCAR-5 = experiment: Growth inhibition of human OVCAR5 cells assessed as cell growth at 10 uM by sulforhodamine B assay; conditions: read-out: Activity
NCI-H23 [7] = experiment: Growth inhibition of human NCI-H23 cells assessed as cell growth at 10^-4 M by sulforhodamine B assay; conditions: read-out: Activity
HT-29 = experiment: Growth inhibition of human HT-29 cells assessed as growth inhibition at 10 uM by sulforhodamine B assay; conditions: read-out: GI
SK-OV-3 = experiment: Growth inhibition of human SKOV3 cells assessed as growth inhibition at 10 uM by sulforhodamine B assay; conditions: read-out: GI
RXF 393 [8] = experiment: Growth inhibition of human RXF393 cells assessed as growth inhibition at 10 uM by sulforhodamine B assay; conditions: read-out: GI
CAKI-1 [9] = experiment: Growth inhibition of human CAKI-1 cells assessed as cell growth at 10 uM by sulforhodamine B assay; conditions: read-out: Activity
KM12 = experiment: Growth inhibition of human KM12 cells assessed as cell growth at 10^-4 M by sulforhodamine B assay; conditions: read-out: Activity
SK-MEL-5 = experiment: Growth inhibition of human SK-MEL-5 cells assessed as cell growth at 10^-4 M by sulforhodamine B assay; conditions: read-out: Activity
RPMI-8226 = experiment: Growth inhibition of human RPMI8226 cells by sulforhodamine B assay
SK-MEL-2 [10] = experiment: Growth inhibition of human SK-MEL-2 cells assessed as cell growth at 10 uM by sulforhodamine B assay; conditions: read-out: Activity
HOP-92 [11] = experiment: Growth inhibition of human HOP92 cells assessed as cell growth at 10^-7 M by sulforhodamine B assay; conditions: read-out: Activity
HL-60(TB) = experiment: Growth inhibition of human HL-60(TB) cells assessed as growth inhibition at 10 uM by sulforhodamine B assay; conditions: read-out: GI
SF-268 = experiment: Growth inhibition of human SF268 cells assessed as cell growth at 10 uM by sulforhodamine B assay; conditions: read-out: Activity
CCRF-CEM [12] = experiment: Growth inhibition of human CCRF-CEM cells assessed as cell growth at 10 uM by sulforhodamine B assay; conditions: read-out: Activity
[13] = Growth inhibition of human EKVX cells assessed as growth inhibition at 10 uM by sulforhodamine B assay; conditions: read-out: GI
DU-145 [14] = experiment: Growth inhibition of human DU145 cells assessed as cell growth at 10 uM by sulforhodamine B assay; conditions: read-out: Activity
CAKI-1 [15] = experiment: Growth inhibition of human CAKI-1 cells assessed as cell growth at 10^-8 M by sulforhodamine B assay; conditions: read-out: Activity
SR [16] = experiment: Growth inhibition of human SR cells assessed as cell growth at 10^-6 M by sulforhodamine B assay; conditions: read-out: Activity
NCI-H460 = experiment: Growth inhibition of human NCI-H460 cells assessed as cell growth at 10 uM by sulforhodamine B assay; conditions: read-out: Activity
[17] = Growth inhibition of human Hs 578T cells assessed as cell growth at 10^-8 M by sulforhodamine B assay; conditions: read-out: Activity
COLO 205 = experiment: Growth inhibition of human COLO205 cells by sulforhodamine B assay
TK-10 [18] = experiment: Growth inhibition of human TK10 cells assessed as growth inhibition at 10 uM by sulforhodamine B assay; conditions: read-out: GI
[19] = Growth inhibition of human Hs 578T cells assessed as growth inhibition at 10 uM by sulforhodamine B assay; conditions: read-out: GI
MCF7 = experiment: Growth inhibition of human MCF7 cells assessed as cell growth at 10^-8 M by sulforhodamine B assay; conditions: read-out: Activity
A549 = experiment: Growth inhibition of human A549/ATCC cells assessed as cell growth at 10^-8 M by sulforhodamine B assay; conditions: read-out: Activity
SR [20] = experiment: Growth inhibition of human SR cells assessed as cell growth at 10^-8 M by sulforhodamine B assay; conditions: read-out: Activity
M14 = experiment: Growth inhibition of human M14 cells assessed as cell growth at 10 uM by sulforhodamine B assay; conditions: read-out: Activity
MOLT-4 = experiment: Growth inhibition of human MOLT4 cells assessed as cell growth at 10 uM by sulforhodamine B assay; conditions: read-out: Activity
NCI-H23 [21] = experiment: Growth inhibition of human NCI-H23 cells assessed as cell growth at 10^-7 M by sulforhodamine B assay; conditions: read-out: Activity
K562 = experiment: Growth inhibition of human K562 cells assessed as cell growth at 10^-8 M by sulforhodamine B assay; conditions: read-out: Activity
NCI-H23 [22] = experiment: Growth inhibition of human NCI-H23 cells assessed as growth inhibition at 10 uM by sulforhodamine B assay; conditions: read-out: GI
TK-10 [23] = experiment: Growth inhibition of human TK10 cells assessed as cell growth at 10^-8 M by sulforhodamine B assay; conditions: read-out: Activity
SF-539 [24] = experiment: Growth inhibition of human SF539 cells assessed as cell growth at 10^-8 M by sulforhodamine B assay; conditions: read-out: Activity
RXF 393 [25] = experiment: Growth inhibition of human RXF393 cells assessed as cell growth at 10^-6 M by sulforhodamine B assay; conditions: read-out: Activity
[26] = read-out: LC50 (the source's name)
[27] = read-out: pLC50 (the source's name) (converted)

Compound `CC(C)=CC(=O)O[C@@H]1CC(C)(C)C[C@H]2C3=CC[C@@H]4[C@@]5(C)CCC(=O)C(C)(C)[C@@H]5CC[C@@]4(C)[C@]3(C)CC[C@@]12C(=O)O` has an inhibition of growth at 10 µM (CCRF-CEM [1]) of 74.7%, a growth at 0.1 µM (ACHN) of 92% and an inhibition of growth at 10 µM (HOP-92 [2]) of 71.6%. The growth at 10 µM (SNB-19) was 57.3%, the growth at 1 µM (DU-145 [3]) was 90% and the inhibition of growth at 10 µM (SW-620) was 37.3%. It also gave a growth at 1 µM (U-251) of 74%, a growth at 0.01 µM (UO-31) of 88% and a GI50 (SK-MEL-2 [4]; read-out: GI50) of 3.48 µM. The CC50 (SK-MEL-2 [4]; [26]) was 61.3 µM, the TGI (SK-MEL-2 [4]; read-out: TGI) was 16.9 µM and the GI50 (SK-MEL-2 [4]; read-out: pGI50 (converted)) was 3.47 µM. For the same compound, the CC50 (SK-MEL-2 [4]; [27]) was 61.7 µM, the TGI (SK-MEL-2 [4]; read-out: pTGI (converted)) was 17 µM and the growth at 100 µM (TK-10 [5]) was -18%. The growth at 100 µM (SF-539 [6]) was -50%, the inhibition of growth at 10 µM (IGROV-1) was 37.7% and the inhibition of growth at 10 µM (A498) was < 10%. For the same compound, the growth at 10 µM (OVCAR-5) was 96.3%, the growth at 100 µM (NCI-H23 [7]) was -10% and the inhibition of growth at 10 µM (HT-29) was 42.7%. For the same compound, the inhibition of growth at 10 µM (SK-OV-3) was < 10%, the inhibition of growth at 10 µM (RXF 393 [8]) was 15.4% and the growth at 10 µM (CAKI-1 [9]) was 46.8%. The growth at 100 µM (KM12) was -69%, the growth at 100 µM (SK-MEL-5) was -78% and the GI50 (RPMI-8226; read-out: GI50) was 1.46 µM. For the same compound, the CC50 (RPMI-8226; [26]) was > 100 µM, the TGI (RPMI-8226; read-out: TGI) was 23.3 µM and the GI50 (RPMI-8226; read-out: pGI50 (converted)) was 1.48 µM. For the same compound, the CC50 (RPMI-8226; [27]) was > 100 µM, the TGI (RPMI-8226; read-out: pTGI (converted)) was 23.4 µM and the growth at 10 µM (SK-MEL-2 [10]) was 78.2%. For the same compound, the growth at 0.1 µM (HOP-92 [11]) was 90%, the inhibition of growth at 10 µM (HL-60(TB)) was 89.8% and the growth at 10 µM (SF-268) was 73%. It also gave a growth at 10 µM (CCRF-CEM [12]) of 25.3%, an inhibition of growth at 10 µM [13] of 58.8% and a growth at 10 µM (DU-145 [14]) of 74.5%. The growth at 0.01 µM (CAKI-1 [15]) was 95%, the growth at 1 µM (SR [16]) was 95% and the growth at 10 µM (NCI-H460) was 47.1%. It also gave a growth at 0.01 µM [17] of 96%, a GI50 (COLO 205; read-out: GI50) of 3.61 µM and an LC50 (COLO 205; read-out: LC50) of 49.1 µM. It also gave a TGI (COLO 205; read-out: TGI) of 12.3 µM, a GI50 (COLO 205; read-out: pGI50 (converted)) of 3.63 µM and an LC50 (COLO 205; read-out: pLC50 (converted)) of 49 µM. The TGI (COLO 205; read-out: pTGI (converted)) was 12.3 µM, the inhibition of growth at 10 µM (TK-10 [18]) was 21.9% and the inhibition of growth at 10 µM [19] was 20.4%. For the same compound, the growth at 0.01 µM (MCF7) was 87%, the growth at 0.01 µM (A549) was 93% and the growth at 0.01 µM (SR [20]) was 109%. The growth at 10 µM (M14) was 80.3%, the growth at 10 µM (MOLT-4) was 36.5% and the growth at 0.1 µM (NCI-H23 [21]) was 90%. It also gave a growth at 0.01 µM (K562) of 116%, an inhibition of growth at 10 µM (NCI-H23 [22]) of 46.6% and a growth at 0.01 µM (TK-10 [23]) of 96%. It also gave a growth at 0.01 µM (SF-539 [24]) of 93% and a growth at 1 µM (RXF 393 [25]) of 85%.
